Results taken from ChEMBL document CHEMBL5584354, “Impact of Conjugation of the Reactive Oxygen Species (ROS)-Generating Catalytic Moiety with Membrane-Active Antimicrobial Peptoids: Promoting Multitarget Mechanism and Enhancing Selectivity” (J Med Chem, 2024).
In brackets after ≈: the same amount, converted by molar mass. Activity calls are given as the source filed them. No cut-off for these calls is given here. Non-standard residues stand in square brackets, D forms with d. Residues, ends and D or L forms follow the SMILES beside them. Gly(N(CH2)2(3-indolyl)) = O=C(O)CNCCc1c[nH]c2ccccc12; Nspe = C[C@H](NCC(=O)O)c1ccccc1; Nlys = NCCCCNCC(=O)O

Tests used:
Escherichia coli [1] = experiment: Induction of lipid peroxidation in Escherichia coli ATCC 25922 at 12.5 uM incubated for 1 hrs by BODIPY 581/591 C11 dye based flow cytometry analysis; assay type: functional, organism-based
Escherichia coli [2] = experiment: Antibacterial activity against Escherichia coli ATCC 25922 assessed as inhibition of bacterial growth incubated for 24 hrs by broth dilution method; assay type: functional
[3] = Hemolytic activity in male Sprague-Dawley rat erythrocytes assessed as concentration required for 50% hemolysis incubated for 1 hr by absorbance based method; assay type: toxicity, cell-based, Erythrocyte
Cell membrane [4] = experiment: Disruption of outer membrane in Escherichia coli ATCC 25922 assessed as increase in absorbance measured every 5 mins for 90 mins by nitrocefin assay; assay type: cell membranes; settings: dose 0-25 µM
HEK293 = experiment: Cytotoxicity against HEK293 cells assessed as cell killing incubated for 24 hrs by MTS assay; assay type: toxicity, cell-based; settings: human, hek293, 24 h
Acinetobacter baumannii = experiment: Antibacterial activity against carbapenem-resistant Acinetobacter baumannii NMS1707 harboring extended-spectrum beta-lactamase assessed as inhibition of bacterial growth incubated for 24 hrs by broth dilution method; assay type: functional
Escherichia coli [5] = experiment: Induction of lipid peroxidation in Escherichia coli ATCC 25922 assessed as increase in MDA level at 10 uM incubated for 2 hrs by TBARS assay; assay type: functional, organism-based
[6] = Hemolytic activity in male Sprague-Dawley rat erythrocytes at 100 uM incubated for 1 hr by absorbance based method relative to control; assay type: toxicity, cell-based, Erythrocyte; settings: read-out: Activity
Escherichia coli [7] = experiment: Antibacterial activity against colistin-resistant Escherichia coli NMS12 harboring extended-spectrum beta-lactamase assessed as inhibition of bacterial growth incubated for 24 hrs by broth dilution method; assay type: functional
RAW264.7 [8] = experiment: Antiinflammatory activity in LPS-stimulated mouse RAW264.7 cells assessed as reduction in nitrite production at 10 uM incubated for 16 hrs by ELISA relative to control; assay type: functional; set-up: scale not given: the % may be the effect or the level left
Lipopolysaccharide (LPS) = experiment: Binding affinity to Escherichia coli O111:B4 LPS at 0 to 25 uM BODIPY-TR-cadaverine substitution assay; assay type: subcellular; settings: dose 0-25 µM
[9] = Hemolytic activity in male Sprague-Dawley rat erythrocytes at 25 uM incubated for 1 hr by absorbance based method relative to control; assay type: toxicity, cell-based, Erythrocyte; settings: read-out: Activity
Klebsiella pneumoniae = experiment: Antibacterial activity against carbapenem-resistant Klebsiella pneumoniae NMS118 harboring extended-spectrum beta-lactamase assessed as inhibition of bacterial growth incubated for 24 hrs by broth dilution method; assay type: functional
RAW264.7 [10] = experiment: Antiinflammatory activity in LPS-stimulated mouse RAW264.7 cells assessed as reduction in IL-1beta production at 10 uM incubated for 16 hrs by ELISA relative to control; assay type: functional; set-up: scale not given: the % may be the effect or the level left
HaCaT = experiment: Cytotoxicity against human HaCaT cells assessed as cell killing incubated for 24 hrs by MTS assay; assay type: toxicity, cell-based
DNA = experiment: Binding affinity to pUC19 plasmid DNA (unknown origin) assessed as smearing and retardation of DNA bands at 25 uM incubated for 2 hrs by agarose gel imaging method; assay type: nucleic-acid assay
Staphylococcus aureus = experiment: Antibacterial activity against Staphylococcus aureus ATCC 25923 assessed as inhibition of bacterial growth incubated for 24 hrs by broth dilution method; assay type: functional
Cell membrane [11] = experiment: Disruption of inner membrane in Escherichia coli ATCC 25922 assessed as increase in absorbance incubated for 1 hr by ONPG assay; assay type: cell membranes; settings: dose 0-25 µM
Erythrocyte = experiment: Hemolytic activity in male Sprague-Dawley rat erythrocytes assessed as concentration required for 10% hemolysis incubated for 1 hr by absorbance based method; assay type: toxicity, cell-based
RAW264.7 [12] = experiment: Antiinflammatory activity in LPS-stimulated mouse RAW264.7 cells assessed as reduction in IL-6 production at 10 uM incubated for 16 hrs by ELISA relative to control; assay type: functional; set-up: scale not given: the % may be the effect or the level left
[13] = Cytotoxicity against mouse RAW264.7 cells assessed as cell viability at 10 uM incubated for 24 hrs by […] relative to control; assay type: toxicity, cell-based; settings: read-out: Activity
[14] = Hemolytic activity in male Sprague-Dawley rat erythrocytes at 50 uM incubated for 1 hr by absorbance based method relative to control; assay type: toxicity, cell-based, Erythrocyte; settings: read-out: Activity
RAW264.7 [15] = experiment: Cytotoxicity against mouse RAW264.7 cells assessed as cell killing incubated for 24 hrs by MTS assay; assay type: toxicity, cell-based; settings: raw264.7, 24 h
MRC5 = experiment: Cytotoxicity against human MRC5 cells assessed as cell killing incubated for 24 hrs by MTS assay; assay type: toxicity, cell-based; settings: mrc5, 24 h
Escherichia coli [16] = experiment: Antibacterial activity against carbapenem-resistant Escherichia coli NMS11035 harboring extended-spectrum beta-lactamase assessed as inhibition of bacterial growth incubated for 24 hrs by broth dilution method; assay type: functional
[17] = Cytotoxicity against mouse RAW264.7 cells assessed as cell viability at 20 uM incubated for 24 hrs by […] relative to control; assay type: toxicity, cell-based; settings: read-out: Activity
Escherichia coli [18] = experiment: Induction of lipid peroxidation in Escherichia coli ATCC 25922 assessed as increase in green fluorescence at 12.5 uM incubated for 1 hrs by BODIPY 581/591 C11 dye based confocal microscopic analysis; assay type: functional, organism-based
[19] = Selectivity index, ratio of HC10 for hemolytic activity in male Sprague-Dawley rat erythrocytes to MIC for antibacterial activity against Escherichia coli ATCC 25922; assay type: toxicity; settings: read-out: Selectivity Index
RAW264.7 [20] = experiment: Antiinflammatory activity in LPS-stimulated mouse RAW264.7 cells assessed as reduction in TNFalpha production at 10 uM incubated for 16 hrs by ELISA relative to control; assay type: functional; set-up: scale not given: the % may be the effect or the level left
[21] = Cytotoxicity against mouse L929 cells assessed as reduction in cell survival at 6.3 uM incubated for 24 hrs by WST-8 assay relative to control; assay type: toxicity, cell-based; settings: read-out: Survival
[22] = Cytotoxicity against HEK293 cells assessed as reduction in cell survival at 6.3 uM incubated for 24 hrs by WST-8 assay relative to control; assay type: toxicity, cell-based; settings: human, read-out: Survival
[23] = Cytotoxicity against mouse RAW264.7 cells assessed as cell survival at 5 uM incubated for 24 hrs by […] relative to control; assay type: toxicity, cell-based; settings: read-out: Survival
[24] = Cytotoxicity against mouse RAW264.7 cells assessed as cell survival at 5 uM incubated for 24 hrs in presence of copper by […] relative to control; assay type: toxicity, cell-based; settings: read-out: Survival
[25] = Cytotoxicity against mouse RAW264.7 cells assessed as cell survival at 5 uM incubated for 24 hrs in presence of nickel by […] relative to control; assay type: toxicity, cell-based; settings: read-out: Survival

C[C@@H](c1ccccc1)N(CC(=O)N(CCCCN)CC(=O)N(CCc1c[nH]c2ccccc12)CC(=O)N(CCc1c[nH]c2ccccc12)CC(N)=O)C(=O)CN(CCCCN)C(=O)CN(CCCCN)C(=O)CN(C(=O)CN(C(=O)CN(CCCCN)C(=O)CN(C(=O)CN(C(=O)CNCCCCN)[C@@H](C)c1ccccc1)[C@@H](C)c1ccccc1)[C@@H](C)c1ccccc1)[C@@H](C)c1ccccc1 (H-[Nlys][Nspe][Nspe][Nlys][Nspe][Nspe][Nlys][Nlys][Nspe][Nlys][Gly(N(CH2)2(3-indolyl))][Gly(N(CH2)2(3-indolyl))]-NH2)
Activity (Escherichia coli [1]): Active
MIC (Escherichia coli [2]): 6.3 µM (≈ 11.7 µg/mL)
HC50 at 1 h [3]: > 100 µM
Activity (Cell membrane [4]): Dose-Dependent Effect
LC50 (HEK293): 16.3 µM
MIC (Acinetobacter baumannii): 3.1 µM (≈ 5.78 µg/mL)
Activity (Escherichia coli [5]): Active
hemolysis at 1 h, 100 µM [6]: 6.7%
MIC (Escherichia coli [7]): 12.5 µM (≈ 23.3 µg/mL)
Activity (RAW264.7 [8]): 88.7%
Activity (Lipopolysaccharide (LPS)): Active
hemolysis at 1 h, 25 µM [9]: 2.72%
MIC (Klebsiella pneumoniae): 12.5 µM (≈ 23.3 µg/mL)
Activity (RAW264.7 [10]): 72.9%
LC50 (HaCaT): 18.8 µM
Activity (DNA): Active
MIC (Staphylococcus aureus): 6.3 µM (≈ 11.7 µg/mL)
Activity (Cell membrane [11]): Dose-Dependent Effect
HC10 (Erythrocyte): > 100 µM
Activity (RAW264.7 [12]): 99%
viability at 24 h, 10 µM [13]: 55.9%
hemolysis at 1 h, 50 µM [14]: 7.85%
LC50 (RAW264.7 [15]): 14.9 µM
LC50 (MRC5): 11.8 µM
MIC (Escherichia coli [16]): 6.3 µM (≈ 11.7 µg/mL)
viability at 24 h, 20 µM [17]: 14.7%
Activity (Escherichia coli [18]): Active
selectivity ratio [19]: > 15.8
Activity (RAW264.7 [20]): 54.4%

CC[C@H](C)[C@H](NC(=O)CN)C(=O)NCC(=O)N[C@@H](C)C(=O)N[C@H](C(=O)N[C@@H](CC(C)C)C(=O)N[C@@H](CCCCN)C(=O)N[C@H](C(=O)N[C@@H](CC(C)C)C(=O)N[C@H](C(=O)N[C@H](C(=O)NCC(=O)N[C@@H](CC(C)C)C(=O)N1CCC[C@H]1C(=O)N[C@@H](C)C(=O)N[C@@H](CC(C)C)C(=O)N[C@H](C(=O)N[C@@H](CO)C(=O)N[C@@H](Cc1c[nH]c2ccccc12)C(=O)N[C@H](C(=O)N[C@@H](CCCCN)C(=O)N[C@@H](CCCNC(=N)N)C(=O)N[C@@H](CCCCN)C(=O)N[C@@H](CCCNC(=N)N)C(=O)N[C@@H](CCC(N)=O)C(=O)N[C@@H](CCC(N)=O)C(N)=O)[C@@H](C)CC)[C@@H](C)CC)[C@@H](C)O)[C@@H](C)O)C(C)C)C(C)C [MELITTIN]
viability at 24 h, 6.3 µM [21]: < 21.5%
viability at 24 h, 6.3 µM [22]: < 21.5%
viability at 24 h, 5 µM [23]: < 24.6%
viability at 24 h, 5 µM [24]: < 24.6%
viability at 24 h, 5 µM [25]: < 24.6%
